Here are results for 16 molecules from patent publication US9624198B2, “Substituted piperidinyltetrahydroquinolines” (Bayer Pharma Aktiengesellschaft, priority 2013, dated 2017).

Each structure is given as a SMILES string. pIC50: −log10 of the molar value. A value given as a limit tells only on which side of the number the result lay.

For data set [1], the target named is human α2C receptor (Homo sapiens (Human), UniProt P18825). Kind of data set: Antagonism against adrenoreceptor α2C (luminescence, recombinant CHO cell line, noradrenaline stimulation). Format: cell-based. The following applies: 20 nM noradrenaline. The method, then: B-1a) Antagonism Against Adrenoreceptors
Antagonism against the adrenoreceptor α1A was tested using a recombinant human α1A receptor CHO cell line which additionally also recombinantly expresses mtAeq (mitochondrial aequorin). Antagonism against the adrenoreceptor α2A was tested using a recombinant human α2A-Gα16 receptor fusion protein CHO cell line (PerkinElmer Life Sciences) which additionally also recombinantly expresses mtAeq. Antagonism against the adrenoreceptor α2B was tested using a recombinant human α2B receptor CHO cell line (PerkinElmer Life Sciences) which additionally also recombinantly expresses mtAeq. Antagonism against the adrenoreceptor α2C was tested using a recombinant human α2C receptor CHO cell line which additionally also recombinantly expresses a chimaric G protein (Gαqi3) and mtOb (mitochondrial obelin).
The cells were cultivated at 37° C. and 5% CO2 in Dulbecco's modified Eagle's Medium/NUT mix F12 with L-glutamine which additionally contains 10% (v/v) inactivated foetal calf serum, 1 mM sodium pyruvate, 0.9 mM sodium bicarbonate, 50 U/ml penicillin, 50 μg/ml streptomycin, 2.5 μg/ml amphotericin B and 1 mg/ml Geneticin. The cells were passaged with enzyme-free Hank's-based cell dissociation buffer. All cell culture reagents used were from Invitrogen (Carlsbad, USA).
Luminescence measurements were carried out on white 384-well microtitre plates. 2000 cells/well were plated in a volume of 25 μl and cultivated for one day at 30° C. and 5% CO2 in cell culture medium with coelenterazine (α2A and α2B: 5 μg/ml; α1a/c and α2C: 2.5 μg/ml). Serial dilutions of the test substances (10 μl) were added to the cells. After 5 minutes, noradrenaline was added to the cells (35 μl; final concentrations: 20 nM (α1a/c, and α2C) or 200 nM (α2A and α2B)), and the emitted light was measured for 50 seconds using a CCD (charge-coupled device) camera (Hamamatsu Corporation, Shizuoka, Japan) in a light-tight box. The test substances were tested up to a maximum concentration of […] The IC50 values were calculated from the appropriate dose-response curves.

For data set [2], the system named is diabetic (ZDFfa/fa) and healthy rats (Wistar). Kind of data set: Assay of perfusion-enhancing substances (microcirculation), laser doppler probe at the paw. Format: in vivo, rat. Particulars: single oral dose; for MED skin temperature: minimum effective dose for significant increase of skin temperature (ttest); for MED microcirculation: minimum effective dose with significantly improved microcirculation vs placebo; for MED microcirculation / factor by which microcirculation is improved at MED compared to placebo: 30 min after administration; for factor by which microcirculation is improved at MED compared to placebo: at the MED. From the text:
B-2e) Assay of Perfusion-Enhancing Substances (Microcirculation)
In diabetic (ZDFfa/fa) and healthy rats (Wistar), a laser doppler probe was fastened under anaesthesia conditions (isoflurane anaesthesia) at the sole of the paw for measuring cutaneous microcirculation. The test animals were once treated orally with the test substances. During the experiment, microperfusion and temperature of the lower extremities were documented continuously. Here, a temperature-sensitive laser doppler probe (Periflux, O2C) was fastened with adhesive to the paws of the animals, allowing the measurement of microperfusion and skin temperature. The microcirculation measurement values were measured on both paws 30 min after oral administration of the test substance. […] Also stated is the MED for the significant increase of skin temperature (ttest).
Microcirculation data for adrenoreceptor α2c antagonist of Example 8 and for the comparative substance ORM12741, an AR α2c antagonist from Orion, are shown in Table 2: […]

Data set [3] has as its system conscious female Wistar rats. As to the kind of experiment: Radiotelemetric measurement of blood pressure and heart rate of conscious rats. The class given is in vivo, rat. From the text:
B-2l) Radiotelemetric Measurement of Blood Pressure and Heart Rate of Conscious Rats
A commercially available telemetry system from Data Sciences International DSI, USA, was employed for the measurements on conscious rats described below. The system consists of 3 main components: (1) implantable transmitters (Physiotel® telemetry transmitter), (2) receivers (Physiotel® receiver), which are linked via a multiplexer (DSI Data Exchange Matrix) to a (3) data acquisition computer. The telemetry system makes it possible to continuously record blood pressure, heart rate and body motion of conscious animals in their usual habitat.
The studies were conducted on adult female Wistar rats with a body weight of >200 g. After transmitter implantation, the experimental animals were housed singly in type III Makrolon® cages. They had free access to standard feed and water. The day/night rhythm in the test laboratory was set by changing the illumination of the room.
The telemetry transmitters used (PA-C40, DSI) were surgically implanted under aseptic conditions in the experimental animals at least 14 days before the first experimental use. […]
Each of the instrumented rats living in the system was assigned a separate receiving antenna (RPC-1 Receiver, DSI). […] The signals emitted were detected online by a data acquisition system (Dataquest™ A.R.T. for Windows, DSI) and processed accordingly.
In the standard procedure, the following were measured for 10-second periods in each case: (1) systolic blood pressure (SBP), (2) diastolic blood pressure (DBP), (3) mean arterial pressure (MAP) and (4) heart rate (HR) and (5) activity (ACT). These parameters were measured over 24 hours after administration.
The acquisition of measurements was repeated under computer control at 5-minute intervals. The source data obtained as absolute values were corrected in the diagram with the currently measured barometric pressure (Ambient Pressure Reference Monitor, APR-1, DSI). […]

Chain of human α2C receptor (P18825 whole entry, the tested form may be a part): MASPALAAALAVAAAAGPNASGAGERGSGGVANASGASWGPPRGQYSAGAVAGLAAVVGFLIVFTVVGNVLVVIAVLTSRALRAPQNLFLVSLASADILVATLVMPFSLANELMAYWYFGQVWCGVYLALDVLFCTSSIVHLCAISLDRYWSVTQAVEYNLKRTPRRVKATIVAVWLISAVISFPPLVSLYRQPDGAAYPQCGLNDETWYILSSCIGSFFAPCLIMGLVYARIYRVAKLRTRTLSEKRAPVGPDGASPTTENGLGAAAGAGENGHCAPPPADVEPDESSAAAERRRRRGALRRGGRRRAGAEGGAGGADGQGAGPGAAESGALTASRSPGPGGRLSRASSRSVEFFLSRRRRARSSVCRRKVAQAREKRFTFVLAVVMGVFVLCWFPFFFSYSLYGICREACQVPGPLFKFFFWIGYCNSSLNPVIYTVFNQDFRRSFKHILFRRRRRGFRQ

By pIC50 is commonly meant −log10 of the IC50, conventionally taken in molar units. In the case of `COCCNc1ccc(C(=O)N2CCC(N3CCc4ccccc4C3)CC2)cn1` [Example 1, [4-(3,4-Dihydroisoquinolin-2-(1H)-yl)piperidin-1-yl]{6-[(2-methoxyethyl)amino]pyridin-3-yl}-methanone], in data set [1], the negative-log IC50 (pIC50) was 7.66. Moreover, in data set [2], the MED skin temperature is on record as 1 mg/kg, the MED microcirculation is listed as 1 mg/kg and the “factor by which microcirculation is improved at MED compared to placebo” value (“factor … compared to placebo” for short) is recorded as 1.8 ×.
With `COCCNc1ccc(C(=O)N2CCC(N3CCc4ccc(F)cc4C3)CC2)cn1` [Example 2, [4-(7-Fluoro-3,4-dihydroisoquinolin-2(1H)-yl)piperidin-1-yl]{6-[(2-methoxyethyl)amino]pyridin-3-yl}methanone], in data set [1], the pIC50 is 7.89.
Turning to `O=C(c1ccc(N2CCOCC2)nc1)N1CCC(N2CCc3ccccc3C2)CC1` [Example 3, [4-(3,4-Dihydroisoquinolin-2(1H)-yl)piperidin-1-yl][6-(morpholin-4-yl)pyridin-3-yl]methanone], the negative-log IC50 (pIC50) in data set [1] was 8.05.
Consider `O=C(c1ccc(N2CCS(=O)(=O)CC2)nc1)N1CCC(N2CCc3ccccc3C2)CC1` [Example 4, [4-(3,4-Dihydroisoquinolin-2(1H)-yl)piperidin-1-yl][6-(1,1-dioxidothiomorpholin-4-yl)pyridin-3-yl]methanone], for which the “haemodynamic effects (blood pressure, heart rate)” value in data set [3] (conscious rats, oral administration, 24 hours telemetry) is “no haemodynamic effects”. In data set [3] (oral dose of 3 and 10 mg/kg), the heart rate result is listed as “slight transient increase in the heart rate”. For the same molecule, in data set [1], the negative-log IC50 (pIC50) is 7.62. Also, in data set [2], the MED skin temperature is reported as 0.1 mg/kg, the MED microcirculation was 0.1 mg/kg and the “factor … compared to placebo” value stood at 2.4 ×.
For `COC[C@H]1CCCN1c1ccc(C(=O)N2CCC(N3CCc4ccccc4C3)CC2)cn1` [Example 5, [4-(3,4-Dihydroisoquinolin-2(1H)-yl)piperidin-1-yl]{6-[(2R)-2-(methoxymethyl)pyrrolidin-1-yl]pyridin-3-yl}methanone], the negative-log IC50 (pIC50) in data set [1] was 7.19.
On to `O=C(O)[C@H]1CCCN1c1ccc(C(=O)N2CCC(N3CCc4ccccc4C3)CC2)cn1` [Example 6, 1-(5-{[4-(3,4-Dihydroisoquinolin-2(1H)-yl)piperidin-1-yl]carbonyl}pyridin-2-yl)-D-proline], for which, in data set [1], the pIC50 was 7.57. In data set [2], the MED skin temperature entry is listed as “no effect”, the MED microcirculation entry is reported as “no effect” and the “factor … compared to placebo” value is listed as ≤ 1.3 ×.
Consider `CC[C@@H](CO)Nc1ccc(C(=O)N2CCC(N3CCc4ccccc4C3)CC2)cn1` [Example 7, [4-(3,4-Dihydroisoquinolin-2(1H)-yl)piperidin-1-yl](6-{[(2S)-1-hydroxybutan-2-yl]amino}pyridin-3-yl)methanone], for which the pIC50 in data set [1] was 7.68.
On to `COC1CCN(c2ccc(C(=O)N3CCC(N4CCc5cc(F)ccc5C4)CC3)cn2)C1` (centres unmarked) [Example 8, [4-(6-Fluoro-3,4-dihydroisoquinolin-2(1H)-yl)piperidin-1-yl][6-(3-methoxypyrrolidin-1-yl)pyridin-3-yl]methanone], for which, in data set [1], the pIC50 was 7.24.
On to `COc1ccc2c(c1)CCN(C1CCN(C(=O)c3ccc(N4CCC(OC)C4)nc3)CC1)C2` (centres unmarked) [Example 9, [4-(6-Methoxy-3,4-dihydroisoquinolin-2(1H)-yl)piperidin-1-yl][6-(3-methoxypyrrolidin-1-yl)pyridin-3-yl]methanone], for which the negative-log IC50 (pIC50) in data set [1] was 7.96.
With `O=C(c1ccc(N2CC3(COC3)C2)nc1)N1CCC(N2CCc3ccccc3C2)CC1` [Example 10, [4-(3,4-Dihydroisoquinolin-2(1H)-yl)piperidin-1-yl][6-(2-oxa-6-azaspiro[3.3]hept-6-yl)pyridin-3-yl]methanone], in data set [2], the MED skin temperature is 0.03 mg/kg, the MED microcirculation was determined as 0.03 mg/kg and the “factor … compared to placebo” value came to 2.1 ×.
For `CC1CN(c2ccc(C(=O)N3CCC(N4CCc5ccccc5C4)CC3)cn2)CC(C)O1` (centres unmarked) [Example 11, [4-(3,4-Dihydroisoquinolin-2(1H)-yl)piperidin-1-yl][6-(2,6-dimethylmorpholin-4-yl)pyridin-3-yl]methanone], the pIC50 in data set [1] is 7.96.
As for `CC1CN(c2ccc(C(=O)N3CCC(N4CCc5ccccc5C4)CC3)cn2)CC(C)O1` (centres unmarked) [Example 12, [4-(3,4-Dihydroisoquinolin-2(1H)-yl)piperidin-1-yl][6-(2,6-dimethylmorpholin-4-yl)pyridin-3-yl]methanone], the pIC50 in data set [1] is 7.68.
`CC1(C)CN(c2ccc(C(=O)N3CCC(N4CCc5ccccc5C4)CC3)cn2)CCO1` [Example 13, [4-(3,4-Dihydroisoquinolin-2(1H)-yl)piperidin-1-yl][6-(2,2-dimethylmorpholin-4-yl)pyridin-3-yl]methanone]: the pIC50 in data set [1] was 7.28.
The same measure, in the same setting: under `O=C(c1ccc(N2CCOC(C(F)(F)F)C2)nc1)N1CCC(N2CCc3ccccc3C2)CC1` (centres unmarked) [Example 14, [4-(3,4-Dihydroisoquinolin-2(1H)-yl)piperidin-1-yl]{6-[2-(trifluoromethyl)morpholin-4-yl]pyridin-3-yl}methanone] stands 7.64; under `O=C(c1ccc(N2CC3(C2)CS(=O)(=O)C3)nc1)N1CCC(N2CCc3ccccc3C2)CC1` [Example 15, [4-(3,4-Dihydroisoquinolin-2(1H)-yl)piperidin-1-yl][6-(2,2-dioxido-2-thia-6-azaspiro[3.3]hept-6-yl)pyridin-3-yl]methanone], 7.28.
On to `COC[C@@]1(C)CCCN2CCc3c(oc4ccccc34)[C@@H]21` [ORM-12741, reference compound], for which the blood pressure result in data set [3] (10 mg/kg, oral) is reported as “additional reduction in blood pressure”. Besides, in data set [2], the MED skin temperature is 0.01 mg/kg, the MED microcirculation came out at 0.1 mg/kg and the “factor … compared to placebo” value was found to be 1.9 ×.
